Measurements from US20250304582A1, “Bicyclic Ureas As Kinase Inhibitors” (Incyte Corporation, priority 2024, published 2025).

How the values were obtained:
[1] = target: T1, pseudo-kinase domain (JH2, amino-acids 536-812) of human Wild Type JAK2 (Homo sapiens, UniProt O60674, F794H/W659A/W777A); experiment: JAK2 LanthaScreen JH2-WT Binding Assay; settings: 50 nM Fluorescent JAK2-JH2 Tracer, 1 hour at 25° C.; read-out: JH2 BIND WT (EX. B)
T1 construct: JH2, amino-acids 536-812 with 3 surface mutations W659A, W777A, F794H; His (C); purchased BPS Bioscience 79463; host or cells: baculovirus expression system
T1 sequence (O60674 536-812 W659A/W777A/F794H): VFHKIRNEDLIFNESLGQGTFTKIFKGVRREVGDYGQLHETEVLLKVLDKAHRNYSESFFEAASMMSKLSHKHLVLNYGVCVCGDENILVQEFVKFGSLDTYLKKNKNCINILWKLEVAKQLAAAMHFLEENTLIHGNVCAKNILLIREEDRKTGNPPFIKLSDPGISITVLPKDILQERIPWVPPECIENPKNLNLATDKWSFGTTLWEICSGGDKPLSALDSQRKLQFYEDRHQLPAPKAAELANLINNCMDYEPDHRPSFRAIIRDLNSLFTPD
Experimental: Example B. JAK2 LanthaScreen JH2-WT Binding Assay
(§1) JAK2 JH2-WT binding assay utilizes pseudo-kinase domain (JH2, amino-acids 536-812 with 3 surface mutations W659A, W777A, F794H) of human Wild Type JAK2 expressed as C-terminal His-Avi-tagged, biotinylated protein in a baculovirus expression system (BPS Bioscience, Catalog #79463). The assay was conducted in black 384-well polystyrene plates in a final reaction volume of 20 μL. JAK2 JH2-WT (0.145 nM) was incubated with compounds (100 nL serially diluted in DMSO) in the presence of 50 nM Fluorescent JAK2-JH2 Tracer (MedChem Express Catalog #HY-102055) and 0.25 nM Streptavidin-Tb cryptate (Cisbio Part #610SATLB) in assay buffer (50 mM Tris, pH=7.5, 10 mM MgCl2, 0.01% Brij-35, 0.1% BSA, 1 mM EGTA, 5% Glycerol and 5 mM DTT). Non-specific binding was accessed in the presence of 2 mM ATP. After incubation for 1 hour at 25° C., LanthaScreen signals were read on a PHERAstar FS plate reader (BMG LABTECH). Data was analyzed with IDBS Xlfit and GraphPad Prism 5.0 software using a four parameter dose response curve to determine IC50 for each compound.

[2] = target: T2, catalytic domain (JH1, amino acids 826-1132) of human JAK2 (Homo sapiens, UniProt O60674); experiment: JAK2 LanthaScreen JH1 Binding Assay; settings: 50 nM fluorescent JAK2-JH1 tracer, 2 hours at 25° C.; read-out: JH1 BIND (EX. A)
T2 construct: catalytic domain (JH1, amino acids 826-1132) of human JAK2; FLAG (N); purchased Carna Biosciences 08-445-20N; host or cells: baculovirus expression system
T2 sequence (O60674 826-1132): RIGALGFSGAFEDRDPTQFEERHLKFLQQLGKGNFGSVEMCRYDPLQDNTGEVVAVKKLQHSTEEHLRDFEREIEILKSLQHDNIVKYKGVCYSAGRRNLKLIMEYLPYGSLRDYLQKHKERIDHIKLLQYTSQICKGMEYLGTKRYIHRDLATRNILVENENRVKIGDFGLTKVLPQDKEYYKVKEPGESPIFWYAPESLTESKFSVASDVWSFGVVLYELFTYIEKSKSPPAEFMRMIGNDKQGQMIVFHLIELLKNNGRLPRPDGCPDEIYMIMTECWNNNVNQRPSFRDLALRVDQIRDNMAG
Experimental: Example A. JAK2 LanthaScreen JH1 Binding Assay
JAK2 JH1 binding assay utilizes catalytic domain (JH1, amino acids 826-1132) of human JAK2 expressed as N-terminal FLAG-tagged, biotinylated protein in a baculovirus expression system (Carna Biosciences, Product #08-445-20N). The assay was conducted in black 384-well polystyrene plates in a final reaction volume of 20 μL. JAK2 JH1 (1.5 nM) was incubated with compounds (100 nL serially diluted in DMSO) in the presence of 50 nM fluorescent JAK2-JH1 tracer and 0.5 nM Streptavidin-Tb cryptate (Cisbio Part #610SATLB) in assay buffer (50 mM Tris, pH=7.5, 10 mM MgCl2, 0.01% Brij-35, 0.1% BSA, 1 mM EGTA, 5% Glycerol and 5 mM DTT). Non-specific binding was accessed in the presence of 2 mM ATP. After incubation for 2 hours at 25° C., LanthaScreen signals were read on a PHERAstar FS plate reader (BMG LABTECH). Data was analyzed with IDBS Xlfit and GraphPad Prism 5.0 software using a four parameter dose response curve to determine IC50 for each compound.

[3] = target: T3, catalytic domain (JH1, amino acids 808-1132) of human JAK2 (Homo sapiens, UniProt O60674); experiment: JAK2 HTRF Enzyme Activity Assay; assay type: biochemical; settings: ATP (30 μM or 1 mM; not stated which for the table), 60 minutes at 25° C.; read-out: JAK2 HTRF (Ex. D)
T3 construct: catalytic domain (JH1, amino acids 808-1132) of human JAK2; His (N); purchased BPS Bioscience 40450; host or cells: baculovirus expression system
T3 sequence (O60674 808-1132): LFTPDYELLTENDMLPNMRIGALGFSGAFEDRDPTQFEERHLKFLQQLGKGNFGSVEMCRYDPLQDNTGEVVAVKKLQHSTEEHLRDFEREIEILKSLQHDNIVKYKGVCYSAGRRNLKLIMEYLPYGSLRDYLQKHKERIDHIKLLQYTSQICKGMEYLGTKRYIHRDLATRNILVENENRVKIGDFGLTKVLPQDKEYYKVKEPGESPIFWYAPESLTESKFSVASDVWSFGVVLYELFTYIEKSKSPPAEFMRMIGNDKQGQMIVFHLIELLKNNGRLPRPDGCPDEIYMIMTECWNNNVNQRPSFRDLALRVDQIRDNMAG
Experimental: Example D. JAK2 HTRF Enzyme Activity Assay
JAK2 enzyme activity assays utilize catalytic domain (JH1, amino acids 808-1132) of human JAK2 expressed as N-terminal His-tagged protein in a baculovirus expression system (BPS Bioscience, Catalog #40450). The assays was conducted in black 384-well polystyrene plates in a final reaction volume of 20 μL. JAK2 (0.015 nM) was incubated with compounds (100 nL serially diluted in DMSO) in the presence of ATP (30 μM or 1 mM) and 500 nM Biotin-labeled EQEDEPEGDYFEWLE (SEQ ID NO.: 1) peptide (BioSource International, custom synthesis) in assay buffer (50 mM Tris, pH=7.5, 10 mM MgCl2, 0.01% Brij-35, 0.1% BSA, 1 mM EGTA, 5% Glycerol and 5 mM DTT) for 60 minutes at 25° C. The reactions were stopped by the addition of 10 μL of detection buffer (50 mM Tris, pH 7.8, 0.5 mg/mL BSA, 150 mM NaCl), supplemented with EDTA, LANCE Eu-W1024 anti-phosphotyrosine (PY20), (PerkinElmer, Catalog #AD0067) and Streptavidin SureLight APC (PerkinElmer Catalog #CR130-100), for a final concentration of 15 mM, 1.5 nM and 75 nM, respectively. HTRF signals were read after 30 minutes incubation at room temperature on a PHERAstar FS plate reader (BMG LABTECH). Data was analyzed with TDBS Xlfit and GraphPad Prism 5.0 software using a four parameter dose response curve to determine IC50 for each compound.

[4] = target: T4, pseudo-kinase domain (JH2, amino-acids 536-812) of human V617F mutant JAK2 (Homo sapiens, UniProt O60674, F794H/V617F/W659A/W777A); experiment: JAK2 LanthaScreen JH2-V617F Binding Assay; settings: 50 nM Fluorescent JAK2-JH2 Tracer, 1 hour at 25° C.; read-out: JH2 BIND V617F (Ex. C)
T4 construct: JH2, amino-acids 536-812 with 3 surface mutations W659A, W777A, F794H; His (C); purchased BPS Bioscience 79498; host or cells: baculovirus expression system
T4 sequence (O60674 536-812 V617F/W659A/W777A/F794H): as the sequence (O60674 536-812 W659A/W777A/F794H) above, with V82F counted along it
Experimental: Example C. JAK2 LanthaScreen JH2-V617F Binding Assay
as §1, with “JH2-V617F” for “JH2-WT”, “V617F mutant” for “Wild Type”, “#79498).” for “#79463).”, “JH2-V617F (0.26” for “JH2-WT (0.145”

Row | Structure (SMILES) | IC50 [1] | IC50 [2] | IC50 [3] | IC50 [4]
1 | [2H]C([2H])([2H])n1c(=O)n([C@@H]2CC[C@@H](NC(=O)OC)C2)c2cc(Nc3cc(C(C)(O)C(F)(F)F)c4cccc(C(F)(F)F)c4n3)ncc21 (stereo partly drawn) [Example 3, Methyl ((1R,3R)-3-(3-(methyl-d3)-2-oxo-6-((4-(1,1,1-trifluoro-2-hydroxypropan-2-yl)-8-(trifluoromethyl)quinolin-2-yl)amino)-2,3-dihydro-1H-imidazo[4,5-c]pyridin-1-yl)cyclopentyl)carbamate] | ≤ 10 nM | > 1000 nM | > 1000 nM | ≤ 10 nM
2 | [2H]C([2H])([2H])n1c(=O)n([C@@H]2CC[C@@H](NC(=O)OC)C2)c2cc(Nc3cc(C)c4cccc(C(F)(F)F)c4n3)ncc21 [Example 4, Methyl ((1R,3R)-3-(3-(methyl-d3)-6-((4-methyl-8-(trifluoromethyl)quinolin-2-yl)amino)-2-oxo-2,3-dihydro-1H-imidazo[4,5-c]pyridin-1-yl)cyclopentyl)carbamate] | ≤ 10 nM | > 1000 nM | > 1000 nM | ≤ 10 nM
3 | [2H]C([2H])([2H])n1c(=O)n([C@@H]2CC[C@@H](NC(=O)OC)C2)c2cc(Nc3cc([S+](C)[O-])c4cccc(C(F)(F)F)c4n3)ncc21 (stereo partly drawn) [Example 5, Methyl ((1R,3R)-3-(3-(methyl-d3)-6-((4-(methylsulfinyl)-8-(trifluoromethyl)quinolin-2-yl)amino)-2-oxo-2,3-dihydro-1H-imidazo[4,5-c]pyridin-1-yl)cyclopentyl)carbamate] | ≤ 10 nM | > 1000 nM | > 1000 nM | ≤ 10 nM
4 | [2H]C([2H])([2H])n1c(=O)n([C@@H]2CC[C@@H](NC(=O)OC)C2)c2cc(Nc3cc(S(C)(=O)=O)c4cccc(C(F)(F)F)c4n3)ncc21 [Example 6, Methyl ((1R,3R)-3-(3-(methyl-d3)-6-((4-(methylsulfonyl)-8-(trifluoromethyl)quinolin-2-yl)amino)-2-oxo-2,3-dihydro-1H-imidazo[4,5-c]pyridin-1-yl)cyclopentyl)carbamate] | ≤ 10 nM | > 1000 nM | > 1000 nM | ≤ 10 nM
5 | [2H]C([2H])([2H])n1c(=O)n([C@@H]2CC[C@@H](NC(=O)OC)C2)c2cc(Nc3cc(S(C)(=N)=O)c4cccc(C(F)(F)F)c4n3)ncc21 (stereo partly drawn) [Example 7, methyl ((1R,3R)-3-(3-(methyl-d3)-6-((4-(S-methylsulfonimidoyl)-8-(trifluoromethyl)quinolin-2-yl)amino)-2-oxo-2,3-dihydro-1H-imidazo[4,5-c]pyridin-1-yl)cyclopentyl)carbamate] | ≤ 10 nM | > 1000 nM | > 1000 nM | 10 to 100 nM
6 | [2H]C([2H])([2H])n1c(=O)n([C@@H]2CC[C@@H](NC(=O)OCc3ccccc3)C2)c2cc(Nc3ccc4cccc(C(F)(F)F)c4n3)ncc21 [Example 8, Benzyl ((1R,3R)-3-(3-(methyl-d3)-2-oxo-6-((8-(trifluoromethyl)quinolin-2-yl)amino)-2,3-dihydro-1H-imidazo[4,5-c]pyridin-1-yl)cyclopentyl)carbamate] | 10 to 100 nM | > 1000 nM | > 1000 nM | 10 to 100 nM
7 | [2H]C([2H])([2H])n1c(=O)n([C@@H]2CC[C@@H](NC(=O)OC)C2)c2cc(Nc3cc(C(C)(C)O)c4cccc(C(F)(F)F)c4n3)ncc21 [Example 9, Methyl ((1R,3R)-3-(6-((4-(2-hydroxypropan-2-yl)-8-(trifluoromethyl)quinolin-2-yl)amino)-3-(methyl-d3)-2-oxo-2,3-dihydro-1H-imidazo[4,5-c]pyridin-1-yl)cyclopentyl)carbamate] | ≤ 10 nM | > 1000 nM | > 1000 nM | ≤ 10 nM
8 | [2H]C([2H])([2H])n1c(=O)n([C@@H]2CC[C@@H](NC(=O)OC)C2)c2cc(Nc3cc(C(=O)N(C)C(C)C)c4cccc(C(F)(F)F)c4n3)ncc21 [Example 10, Methyl ((1R,3R)-3-(6-((4-(isopropyl(methyl)carbamoyl)-8-(trifluoromethyl)quinolin-2-yl)amino)-3-(methyl-d3)-2-oxo-2,3-dihydro-1H-imidazo[4,5-c]pyridin-1-yl)cyclopentyl)carbamate] | ≤ 10 nM | > 1000 nM | > 1000 nM | ≤ 10 nM
9 | [2H]C([2H])([2H])n1c(=O)n([C@H]2C[C@H](NC(=O)OC)C2)c2cc(Nc3cc(C(C)(C)O)c4cccc(C(F)(F)F)c4n3)ncc21 [Example 15, Methyl ((trans)-3-(6-((4-(2-hydroxypropan-2-yl)-8-(trifluoromethyl)quinolin-2-yl)amino)-3-(methyl-d3)-2-oxo-2,3-dihydro-1H-imidazo[4,5-c]pyridin-1-yl)cyclobutyl)carbamate] | ≤ 10 nM | 100 to 500 nM | 100 to 500 nM | ≤ 10 nM
10 | [2H]C([2H])([2H])n1c(=O)n([C@H]2C[C@H](NC(=O)OC3CC3)C2)c2cc(Nc3cc(C(C)(C)O)c4cccc(C(F)(F)F)c4n3)ncc21 [Example 16, Cyclopropyl ((trans)-3-(6-((4-(2-hydroxypropan-2-yl)-8-(trifluoromethyl)quinolin-2-yl)amino)-3-(methyl-d3)-2-oxo-2,3-dihydro-1H-imidazo[4,5-c]pyridin-1-yl)cyclobutyl)carbamate] | ≤ 10 nM | 100 to 500 nM | 100 to 500 nM | ≤ 10 nM
